Tests used:
HCT-116 [1] = assay: Anti-tumor activity against human HCT-116 MATP(-/-) cells xenografted in mouse model assessed as tumor growth inhibition at 200 mg/kg QD relative to control; type: functional; details: read-out: TGI
HCT-116 [2] = assay: Antiproliferative activity against MTAP-knock out human HCT-116 cells assessed as proliferation inhibition rate measured after 5 days by CTG assay; type: functional, cell-based; details: HCT-116, 120 h
HCT-116 [3] = assay: Antiproliferative activity against MTAP-knock out human HCT-116 cells assessed as maximal inhibition rate at 10 uM measured after 5 days by CTG assay relative to control; type: functional; details: time 5 day
[4] = Microsomal metabolic stability in human liver microsomes assessed as clearance; type: ADME, Microsome; details: read-out: CLH
[5] = Microsomal metabolic stability in mouse liver microsomes assessed as clearance; type: ADME, Microsome; details: read-out: CLH
[6] = target: S-adenosylmethionine synthase isoform type-2 (Homo sapiens, UniProt P31153); assay: Inhibition of MAT2A (unknown origin) assessed as release of inorganic phosphate using ATP/L-methionine pre-incubated for 30 mins followed by substrate addition measured after 2.5 hrs by colorimetric assay
S-adenosylmethionine synthase isoform type-2, sequence (P31153 whole entry, canonical isoform): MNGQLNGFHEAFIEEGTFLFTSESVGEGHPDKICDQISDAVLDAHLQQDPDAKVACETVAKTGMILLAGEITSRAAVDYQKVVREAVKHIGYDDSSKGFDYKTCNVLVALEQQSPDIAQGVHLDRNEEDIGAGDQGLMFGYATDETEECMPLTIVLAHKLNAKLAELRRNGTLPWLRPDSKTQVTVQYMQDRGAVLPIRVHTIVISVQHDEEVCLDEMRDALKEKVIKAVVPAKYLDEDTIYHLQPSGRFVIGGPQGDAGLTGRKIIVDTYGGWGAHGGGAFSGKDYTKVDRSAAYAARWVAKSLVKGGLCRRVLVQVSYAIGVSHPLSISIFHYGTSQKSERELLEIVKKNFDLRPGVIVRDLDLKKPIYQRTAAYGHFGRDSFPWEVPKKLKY

[7] = Lipophilicity, log D of compound at pH 7.4 byHPLC method; type: physicochemical; details: buffer
HCT-116 [8] = assay: Anti-tumor activity against human HCT-116 MATP(-/-) cells xenografted in mouse model assessed as tumor growth inhibition at 30 mg/kg QD relative to control; type: functional; details: read-out: TGI
[9] = Clearance in male ICR mouse at 10 mg/kg, po and 2 mg/kg, iv measured upto 24 hrs; type: ADME, organism-based; details: in vivo
[10] = Volume of distribution at steady state in male ICR mouse at 10 mg/kg, po and 2 mg/kg, iv measured upto 24 hrs; type: ADME, organism-based; details: in vivo
[11] = Half life in male ICR mouse at 10 mg/kg, po and 2 mg/kg, iv measured upto 24 hrs; type: ADME, organism-based; details: in vivo
[12] = AUC (0 to infinity) in male ICR mouse at 10 mg/kg, po and 2 mg/kg, iv measured upto 24 hrs; type: ADME, organism-based; details: in vivo

| Structure (SMILES) | IC50 (HCT-116 [2]) [nM] | CLint scaled [4] [mL/min/kg] | CLint scaled [5] [mL/min/kg] | IC50 [6] [nM] | logD [7] | clearance [9] [mL/min/kg] | Vdss [10] [L/kg] | half-life [11] [h] | AUC(0-inf) [12] [ng·h/mL] | inhibition in vivo at 200 mg/kg (HCT-116 [1]) [%] | Imax (HCT-116 [3]) [%] | inhibition in vivo at 30 mg/kg (HCT-116 [8]) [%] |
| --- | --- | --- | --- | --- | --- | --- | --- | --- | --- | --- | --- | --- |
| COc1ccc(-c2c(Nc3ccccn3)[nH]c3c(C4=CCCCC4)c(-c4ccccc4)nn3c2=O)cc1 | 492 | < 9.3 | 40.3 | – | – | – | – | – | – | 52 | 100 | – |
| CNC1=NC(=O)C2(CCc3ncccc32)c2cc(C3CC3)cc(F)c21 (centres undefined) | 240 | – | – | 13 | 2.21 | – | – | – | – | – | 78.29 | – |
| Cn1cnc2c(=O)n(-c3cccnc3C3CC3)c3cc(Cl)ccc3c21 | – | – | – | – | – | – | – | – | – | – | – | 82.9 |
| CNC1=NC(=O)C2(COc3ccccc32)c2nc(C(F)(F)F)ccc21 (centres undefined) | 5080 | – | – | 115 | – | – | – | – | – | – | 51.99 | – |
| CNC1=NC(=O)C2(CC(C)(C)c3ccccc32)c2nc(C(F)(F)F)ccc21 (centres undefined) | > 10000 | – | – | 78 | – | – | – | – | – | – | – | – |
| CNC1=NC(=O)C2(CCc3cc(F)ccc32)c2nc(C(F)(F)F)ccc21 (centres undefined) | 4710 | < 9.3 | 71.6 | 33 | – | – | – | – | – | – | 55.77 | – |
| CNC1=NC(=O)C2(OCc3ccccc32)c2nc(C(F)(F)F)ccc21 (centres undefined) | – | – | – | > 3000 | – | – | – | – | – | – | – | – |
| CNC1=NC(=O)C2(Cc3ccccc3C2)c2nc(C(F)(F)F)ccc21 | – | – | – | 55 | – | – | – | – | – | – | – | – |
| [2H]C([2H])([2H])NC1=NC(=O)[C@]2(CCc3ncccc32)c2cc(C3CC3)c(F)cc21 | 49 | < 9.3 | 38.9 | 4 | 2.2 | 11.4 | 1.02 | 2.1 | 12300 | – | 77 | – |
| CNC1=NC(=O)C2(CCc3ncccc32)c2cc(C3CC3)c(F)cc21 (centres undefined) | 83 | < 9.3 | 38.9 | 4 | 2.24 | – | – | – | – | – | 84.78 | – |
| CNC1=NC(=O)C2(CCc3cccnc32)c2nc(C(F)(F)F)ccc21 (centres undefined) | – | – | – | 591 | – | – | – | – | – | – | – | – |
| CNC1=NC(=O)C2(CCc3c(Br)cccc32)c2nc(C(F)(F)F)ccc21 (centres undefined) | – | – | – | 18 | – | – | – | – | – | – | – | – |
| CNC1=NC(=O)C2(CCc3ncccc32)c2cc(C3CC3)ncc21 (centres undefined) | 1060 | – | – | 47 | 1.1 | – | – | – | – | – | 79.52 | – |
| COC1(C(=O)N2Cc3nc(Cl)nc(N[C@H](C)c4cc(N)cc(C(F)(F)F)c4)c3C2)CCOCC1 | – | < 9.3 | < 9.3 | – | – | – | – | – | – | – | – | – |
| CNC1=NC(=O)C(C)(c2ccccc2)c2nc(C(F)(F)F)ccc21 (centres undefined) | – | – | – | 57 | – | – | – | – | – | – | – | – |
| CNC1=NC(=O)C2(CCc3cccc(F)c32)c2nc(C(F)(F)F)ccc21 (centres undefined) | 225 | – | – | 24 | – | – | – | – | – | – | 71.66 | – |
| CNC1=NC(=O)C2(CCCc3ccccc32)c2nc(C(F)(F)F)ccc21 (centres undefined) | 57 | 24.1 | 193 | 12 | – | – | – | – | – | – | 74.25 | – |
| CNC1=NC(=O)C2(CCc3ccc(F)cc32)c2nc(C(F)(F)F)ccc21 (centres undefined) | 23300 | – | – | 55 | – | – | – | – | – | – | 52.53 | – |
| CNC1=NC(=O)C2(CCc3c(C#N)cccc32)c2nc(C(F)(F)F)ccc21 (centres undefined) | 1100 | < 9.3 | 48.2 | 18 | – | – | – | – | – | – | 76.16 | – |
| [2H]C([2H])([2H])NC1=NC(=O)[C@]2(CCc3ncccc32)c2cc(C3CC3)ccc21 | 55 | 11.2 | 63 | 4 | 1.92 | 13.1 | 1.26 | 1.47 | 22000 | – | 78.6 | – |
| CNC1=NC(=O)C2(CCc3ccccc32)c2nc(C(F)(F)F)ccc21 (centres undefined) | 17 | < 9.3 | 59 | 7 | – | 29.3 | 3.665 | 2.05 | 6020 | – | 77.71 | – |
| CNC1=NC(=O)C2(CCc3ncccc32)c2cc(C3CC3)ccc21 (centres undefined) | 66 | 12.3 | 85.7 | 6 | 1.92 | – | – | – | – | – | 97.11 | – |
| CNC1=NC(=O)C2(CCc3c(F)cccc32)c2nc(C(F)(F)F)ccc21 (centres undefined) | 105 | 13.4 | 118 | 11 | – | – | – | – | – | – | 86.45 | – |
| CNc1nc(=O)n(-c2ccccc2Cl)c2nc(C(F)(F)F)ccc12 (single isomer, unassigned; atropisomer 1) | – | – | – | 3 | – | – | – | – | – | – | – | – |
| CNc1nc(=O)n(-c2ccccc2Cl)c2nc(C(F)(F)F)ccc12 (single isomer, unassigned; atropisomer 2) | – | – | – | 86 | – | – | – | – | – | – | – | – |
| Nc1nc(=O)n(-c2ccccc2Cl)c2nc(C(F)(F)F)ccc12 (single isomer, unassigned; atropisomer A) | – | – | – | 3 | – | – | – | – | – | – | – | – |

Further lines, with some results ahead:

| IC50 (HCT-116 [2]) [nM] | CLint scaled [4] [mL/min/kg] | CLint scaled [5] [mL/min/kg] | IC50 [6] [nM] | logD [7] | clearance [9] [mL/min/kg] | Vdss [10] [L/kg] | half-life [11] [h] | AUC(0-inf) [12] [ng·h/mL] | Structure (SMILES) | inhibition in vivo at 200 mg/kg (HCT-116 [1]) [%] | Imax (HCT-116 [3]) [%] | inhibition in vivo at 30 mg/kg (HCT-116 [8]) [%] |
| --- | --- | --- | --- | --- | --- | --- | --- | --- | --- | --- | --- | --- |
| – | – | – | 64 | 2.4 | – | – | – | – | C=C(c1ccc2c(c1)C1(CCc3ncccc31)C(=O)N=C2NC)C(F)(F)F (centres undefined) | – | – | – |
| 101 | < 9.3 | 55 | 9 | 1.57 | – | – | – | – | CNC1=NC(=O)C2(CCc3ncccc32)c2cc(C(C)(F)F)ccc21 (centres undefined) | – | 100 | – |
| 2440 | – | – | 16 | 1.95 | – | – | – | – | CNC1=NC(=O)C2(CCc3ncccc32)c2cc(C=C(F)F)ccc21 (centres undefined) | – | 96.49 | – |
| 193 | – | – | 8 | 1.36 | – | – | – | – | CNC1=NC(=O)C2(CCc3ncccc32)c2cc(OC(F)F)ccc21 (centres undefined) | – | 83.08 | – |
| 405 | – | – | 6 | 2.55 | – | – | – | – | CNC1=NC(=O)C2(CCc3ncccc32)c2cc(C(F)(F)C(F)(F)F)ccc21 (centres undefined) | – | 66.34 | – |
| 70 | < 9.3 | < 29.3 | 4 | 1.87 | 11.2 | 1.15 | 1.58 | 14200 | [2H]C([2H])([2H])NC1=NC(=O)[C@]2(CCc3ncccc32)c2cc(C(C)(F)F)c(F)cc21 | – | 85.98 | – |
| 149 | < 9.3 | 67 | 9 | – | 9.06 | 2.42 | 3.35 | 18600 | CNC1=NC(=O)C2(CCc3ncccc32)c2nc(C(F)(F)F)ccc21 (centres undefined) | – | 87.63 | – |
| 146 | – | – | 4 | 2.77 | – | – | – | – | O=C1N=C(NC2CC2)c2ccc(C(F)(F)F)cc2C12CCc1ncccc12 (racemic) | – | 71.61 | – |
| 115 | < 9.3 | 42.5 | 8 | 1.82 | 5.13 | 1.39 | 3.64 | 56700 | [2H]C([2H])([2H])NC1=NC(=O)C2(CCc3ncccc32)c2cc(C(F)(F)F)ccc21 (racemic) | – | 92 | – |
| 283 | – | – | 5 | 2.88 | – | – | – | – | O=C1N=C(NC2CC(F)(F)C2)c2ccc(C(F)(F)F)cc2C12CCc1ncccc12 (racemic) | – | 77.73 | – |
| 180 | – | – | 12 | 3.29 | – | – | – | – | COc1cc(NC2=NC(=O)C3(CCc4ncccc43)c3cc(C(F)(F)F)ccc32)ccn1 (racemic) | – | 56.22 | – |
| 263 | < 9.3 | < 29.3 | 10 | 2.73 | – | – | – | – | O=C1N=C(NCC(F)(F)F)c2ccc(C(F)(F)F)cc2C12CCc1ncccc12 (racemic) | – | 101.9 | – |
| – | – | – | > 3000 | 1.57 | – | – | – | – | O=C1N=C(NC2COC2)c2ccc(C(F)(F)F)cc2C12CCc1ncccc12 (racemic) | – | – | – |
| 119 | – | – | 19 | 2.24 | – | – | – | – | CN(C)C1=NC(=O)C2(CCc3ncccc32)c2cc(C(F)(F)F)ccc21 (racemic) | – | 79.25 | – |
| 100 | < 9.6 | < 9.6 | 4 | 1.76 | 8.48 | 1.68 | 1.92 | 20400 | NC1=NC(=O)C2(CCc3ncccc32)c2cc(C(F)(F)F)ccc21 (racemic) | – | 75.59 | – |
| 97 | < 9.3 | 51.2 | 11 | 1.83 | 6.77 | 2.2 | 3.53 | 35200 | CNC1=NC(=O)C2(CCc3ncccc32)c2cc(C(F)(F)F)ccc21 (racemic) | – | 93.27 | – |
